Measurements: US9926282B2, “Phthalazinones and isoquinolinones as rock inhibitors” (BRISTOL-MYERS SQUIBB COMPANY, priority 2013, dated 2018)

How the values were obtained:
[1] = target: ROCK2 (Homo sapiens (Human), UniProt O75116); experiment: ROCK assay (LABCHIP peptide phosphorylation), ROCK2; format: biochemical; conditions: 5 μM ATP, 1.5 μM peptide substrate
[2] = target: ROCK1 (Homo sapiens (Human), UniProt Q13464); experiment: ROCK assay (LABCHIP peptide phosphorylation), ROCK1; format: biochemical; conditions: 5 μM ATP, 1.5 μM peptide substrate; read-out: ROCK1 IC50
Sequence of ROCK1 (Q13464 whole entry, species assumed): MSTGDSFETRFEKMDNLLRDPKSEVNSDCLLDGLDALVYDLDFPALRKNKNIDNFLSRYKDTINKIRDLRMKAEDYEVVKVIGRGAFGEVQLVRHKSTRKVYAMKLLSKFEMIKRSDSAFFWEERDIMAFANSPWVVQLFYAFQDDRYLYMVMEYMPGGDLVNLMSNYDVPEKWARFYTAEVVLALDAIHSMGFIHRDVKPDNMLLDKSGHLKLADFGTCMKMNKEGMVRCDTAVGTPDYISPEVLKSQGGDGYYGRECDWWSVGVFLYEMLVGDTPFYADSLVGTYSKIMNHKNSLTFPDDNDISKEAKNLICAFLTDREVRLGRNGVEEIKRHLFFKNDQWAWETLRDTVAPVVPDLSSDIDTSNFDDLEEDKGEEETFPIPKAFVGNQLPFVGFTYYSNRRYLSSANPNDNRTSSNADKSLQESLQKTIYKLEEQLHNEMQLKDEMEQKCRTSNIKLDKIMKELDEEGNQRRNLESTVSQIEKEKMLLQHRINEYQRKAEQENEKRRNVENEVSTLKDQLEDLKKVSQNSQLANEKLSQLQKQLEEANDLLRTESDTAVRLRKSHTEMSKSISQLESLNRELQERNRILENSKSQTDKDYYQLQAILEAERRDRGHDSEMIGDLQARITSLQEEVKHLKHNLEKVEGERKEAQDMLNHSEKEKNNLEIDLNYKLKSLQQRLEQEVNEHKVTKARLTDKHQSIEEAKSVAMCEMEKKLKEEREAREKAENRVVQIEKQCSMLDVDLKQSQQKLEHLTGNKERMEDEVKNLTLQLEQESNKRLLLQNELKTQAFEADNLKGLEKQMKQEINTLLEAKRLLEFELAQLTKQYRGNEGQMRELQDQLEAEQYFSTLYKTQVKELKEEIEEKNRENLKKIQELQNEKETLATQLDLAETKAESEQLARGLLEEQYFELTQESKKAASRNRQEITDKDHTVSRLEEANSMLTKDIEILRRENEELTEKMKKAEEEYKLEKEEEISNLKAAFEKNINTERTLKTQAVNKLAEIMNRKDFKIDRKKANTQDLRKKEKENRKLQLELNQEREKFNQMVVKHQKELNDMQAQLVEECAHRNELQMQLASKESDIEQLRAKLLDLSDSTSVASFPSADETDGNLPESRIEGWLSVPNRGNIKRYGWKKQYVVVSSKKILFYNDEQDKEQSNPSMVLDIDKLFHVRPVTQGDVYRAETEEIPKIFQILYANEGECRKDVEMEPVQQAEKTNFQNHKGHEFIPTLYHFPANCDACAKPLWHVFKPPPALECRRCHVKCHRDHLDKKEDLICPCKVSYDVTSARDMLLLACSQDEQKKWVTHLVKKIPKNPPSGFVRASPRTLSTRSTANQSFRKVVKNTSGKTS

Sequence of ROCK2 (O75116 whole entry, species assumed): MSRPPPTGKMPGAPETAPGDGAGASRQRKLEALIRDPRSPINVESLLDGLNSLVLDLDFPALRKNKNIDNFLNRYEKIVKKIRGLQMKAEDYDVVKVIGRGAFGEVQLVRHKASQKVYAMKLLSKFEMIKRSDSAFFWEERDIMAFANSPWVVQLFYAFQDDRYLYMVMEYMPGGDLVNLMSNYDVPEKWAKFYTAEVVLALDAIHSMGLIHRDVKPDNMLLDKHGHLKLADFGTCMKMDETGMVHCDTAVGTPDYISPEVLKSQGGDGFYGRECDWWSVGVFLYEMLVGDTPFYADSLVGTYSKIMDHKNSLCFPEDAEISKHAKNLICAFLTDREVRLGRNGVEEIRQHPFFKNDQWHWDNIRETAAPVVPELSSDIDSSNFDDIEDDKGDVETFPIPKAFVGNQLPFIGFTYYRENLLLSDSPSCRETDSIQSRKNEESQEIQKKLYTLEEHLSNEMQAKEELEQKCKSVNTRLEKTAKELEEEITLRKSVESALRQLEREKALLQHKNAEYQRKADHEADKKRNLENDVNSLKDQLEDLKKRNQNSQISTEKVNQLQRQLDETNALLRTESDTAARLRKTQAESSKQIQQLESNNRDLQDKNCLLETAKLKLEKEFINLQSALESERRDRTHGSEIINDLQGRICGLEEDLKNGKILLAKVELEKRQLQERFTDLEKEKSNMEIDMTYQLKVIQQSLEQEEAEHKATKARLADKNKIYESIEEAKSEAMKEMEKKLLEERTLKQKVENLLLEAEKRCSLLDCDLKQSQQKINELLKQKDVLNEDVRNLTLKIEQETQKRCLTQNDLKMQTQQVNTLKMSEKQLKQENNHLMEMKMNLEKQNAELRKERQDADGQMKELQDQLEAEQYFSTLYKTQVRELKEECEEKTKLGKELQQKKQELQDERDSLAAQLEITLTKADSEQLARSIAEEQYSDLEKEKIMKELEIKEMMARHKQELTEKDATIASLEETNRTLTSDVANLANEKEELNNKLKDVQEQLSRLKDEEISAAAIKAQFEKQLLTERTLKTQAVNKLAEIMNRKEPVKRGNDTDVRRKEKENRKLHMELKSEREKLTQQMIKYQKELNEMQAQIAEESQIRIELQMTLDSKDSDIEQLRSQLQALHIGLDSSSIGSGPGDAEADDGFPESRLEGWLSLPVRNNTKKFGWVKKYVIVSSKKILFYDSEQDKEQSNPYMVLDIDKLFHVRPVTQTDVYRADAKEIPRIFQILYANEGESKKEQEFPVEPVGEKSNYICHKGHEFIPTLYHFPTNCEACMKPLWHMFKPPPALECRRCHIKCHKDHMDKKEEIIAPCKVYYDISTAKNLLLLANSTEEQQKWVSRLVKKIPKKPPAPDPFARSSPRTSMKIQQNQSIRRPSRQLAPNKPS

Row | IC50 [1] [nM] | IC50 [2] [nM] | Structure (SMILES)
1 | 0.1 to 100 | 0.1 to 100 | O=C(Nc1ccc(-c2n[nH]c(=O)c3ccccc23)cc1)c1n[nH]c2c1C(=O)CCC2 [Example 109, 4-oxo-N-[4-(4-oxo-3,4-dihydrophthalazin-1-yl)phenyl]-4,5,6,7-tetrahydro-1H-indazole-3-carboxamide]
2 | 0.1 to 100 | 0.1 to 100 | O=C(Nc1ccc(-c2n[nH]c(=O)c3ccccc23)cc1)c1n[nH]c2ncccc12 [Example 110, N-[4-(4-oxo-3,4-dihydrophthalazin-1-yl)phenyl]-1H-pyrazolo[3,4-b]pyridine-3-carboxamide]
3 | 101 to 1000 | 101 to 1000 | CN1CC(=O)c2c(C(=O)Nc3ccc(-c4n[nH]c(=O)c5ccccc45)cc3)coc2C1 [Example 111, 6-methyl-4-oxo-N-[4-(4-oxo-3,4-dihydrophthalazin-1-yl)phenyl]-4H,5H,6H,7H-furo[2,3-c]pyridine-3-carboxamide]
4 | 101 to 1000 | 1000 to 50000 | O=C(Nc1ccc(-c2n[nH]c(=O)c3ccccc23)cc1)c1nc2ncccn2n1 [Example 112, N-[4-(4-oxo-3,4-dihydrophthalazin-1-yl)phenyl]-[1,2,4]triazolo[1,5-a]pyrimidine-2-carboxamide]
5 | 101 to 1000 | 101 to 1000 | O=C(Nc1ccc(-c2n[nH]c(=O)c3ccccc23)cc1)c1cnn2cccnc12 [Example 113, N-[4-(4-oxo-3,4-dihydrophthalazin-1-yl)phenyl]pyrazolo[1,5-a]pyrimidine-3-carboxamide]
6 | 0.1 to 100 | 101 to 1000 | O=C(Nc1ccc(-c2n[nH]c(=O)c3ccccc23)cc1)c1n[nH]c2ccc(Cl)cc12 [Example 114, 5-chloro-N-[4-(4-oxo-3,4-dihydrophthalazin-1-yl)phenyl]-1H-indazole-3-carboxamide]
7 | 0.1 to 100 | 0.1 to 100 | O=C(Nc1ccc(-c2n[nH]c(=O)c3ccccc23)cc1)c1nc2ccccc2s1 [Example 115, N-[4-(4-oxo-3,4-dihydrophthalazin-1-yl)phenyl]-1,3-benzothiazole-2-carboxamide]
8 | 0.1 to 100 | 0.1 to 100 | Cn1nc2c(c1C(=O)Nc1ccc(-c3n[nH]c(=O)c4ccccc34)cc1)CCCC2 [Example 116, 2-methyl-N-[4-(4-oxo-3,4-dihydrophthalazin-1-yl)phenyl]-4,5,6,7-tetrahydro-2H-indazole-3-carboxamide]
9 | 0.1 to 100 | 0.1 to 100 | COc1cccc2[nH]cc(C(=O)Nc3ccc(-c4n[nH]c(=O)c5ccccc45)cc3)c12 [Example 117, 4-methoxy-N-[4-(4-oxo-3,4-dihydrophthalazin-1-yl)phenyl]-1H-indole-3-carboxamide]
10 | 0.1 to 100 | 101 to 1000 | O=C(Nc1ccc(-c2n[nH]c(=O)c3ccccc23)cc1)c1noc2ccccc12 [Example 118, N-[4-(4-oxo-3,4-dihydrophthalazin-1-yl)phenyl]-1,2-benzoxazole-3-carboxamide]
11 | 0.1 to 100 | 101 to 1000 | O=C(Nc1ccc(-c2n[nH]c(=O)c3ccccc23)cc1)c1cc2cc(Cl)cnc2[nH]1 [Example 119, 5-chloro-N-[4-(4-oxo-3,4-dihydrophthalazin-1-yl)phenyl]-1H-pyrrolo[2,3-b]pyridine-2-carboxamide]
12 | 0.1 to 100 | 101 to 1000 | Cc1cn2cc(C(=O)Nc3ccc(-c4n[nH]c(=O)c5ccccc45)cc3)nc2cn1 [Example 121, 6-methyl-N-[4-(4-oxo-3,4-dihydrophthalazin-1-yl)phenyl]imidazo[1,2-a]pyrazine-2-carboxamide]
13 | 0.1 to 100 | 0.1 to 100 | Cn1cc(C(=O)Nc2ccc(-c3n[nH]c(=O)c4ccccc34)cc2)c2ccccc21 [Example 122, 1-methyl-N-[4-(4-oxo-3,4-dihydrophthalazin-1-yl)phenyl]-1H-indole-3-carboxamide]
14 | 0.1 to 100 | 101 to 1000 | COc1ccc2[nH]nc(C(=O)Nc3ccc(-c4n[nH]c(=O)c5ccccc45)cc3)c2c1 [Example 123, 5-methoxy-N-[4-(4-oxo-3,4-dihydrophthalazin-1-yl)phenyl]-1H-indazole-3-carboxamide]
15 | 0.1 to 100 | 0.1 to 100 | COc1ccc2[nH]c(C(=O)Nc3ccc(-c4n[nH]c(=O)c5ccccc45)cc3)cc2c1 [Example 125, 5-methoxy-N-[4-(4-oxo-3,4-dihydrophthalazin-1-yl)phenyl]-1H-indole-2-carboxamide]
16 | 0.1 to 100 | 101 to 1000 | Cc1ccn2cc(C(=O)Nc3ccc(-c4n[nH]c(=O)c5ccccc45)cc3)nc2c1 [Example 126, 7-methyl-N-[4-(4-oxo-3,4-dihydrophthalazin-1-yl)phenyl]imidazo[1,2-a]pyridine-2-carboxamide]
17 | 0.1 to 100 | 0.1 to 100 | COc1ccc2cc(C(=O)Nc3ccc(-c4n[nH]c(=O)c5ccccc45)cc3)n(C)c2c1 [Example 127, 6-methoxy-1-methyl-N-[4-(4-oxo-3,4-dihydrophthalazin-1-yl)phenyl]-1H-indole-2-carboxamide]
18 | 0.1 to 100 | 0.1 to 100 | CC(C)Oc1ccc2cc(C(=O)Nc3ccc(-c4n[nH]c(=O)c5ccccc45)cc3)[nH]c2c1 [Example 128, N-[4-(4-oxo-3,4-dihydrophthalazin-1-yl)phenyl]-6-(propan-2-yloxy)-1H-indole-2-carboxamide]
19 | 0.1 to 100 | 0.1 to 100 | COc1cccc2cc(C(=O)Nc3ccc(-c4n[nH]c(=O)c5ccccc45)cc3)[nH]c12 [Example 129, 7-methoxy-N-[4-(4-oxo-3,4-dihydrophthalazin-1-yl)phenyl]-1H-indole-2-carboxamide]
20 | 0.1 to 100 | 0.1 to 100 | CCOc1ccc2c(c1)cc(C(=O)Nc1ccc(-c3n[nH]c(=O)c4ccccc34)cc1)n2C [Example 130, 5-ethoxy-1-methyl-N-[4-(4-oxo-3,4-dihydrophthalazin-1-yl)phenyl]-1H-indole-2-carboxamide]
21 | 0.1 to 100 | 0.1 to 100 | Cn1nc2ccccc2c1C(=O)Nc1ccc(-c2n[nH]c(=O)c3ccccc23)cc1 [Example 131, 2-methyl-N-[4-(4-oxo-3,4-dihydrophthalazin-1-yl)phenyl]-2H-indazole-3-carboxamide]
22 | 0.1 to 100 | 101 to 1000 | O=C(Nc1ccc(-c2n[nH]c(=O)c3ccccc23)cc1)c1cn2ccncc2n1 [Example 133, N-[4-(4-oxo-3,4-dihydrophthalazin-1-yl)phenyl]imidazo[1,2-a]pyrazine-2-carboxamide]
23 | 0.1 to 100 | 101 to 1000 | O=C(Nc1ccc(-c2n[nH]c(=O)c3ccccc23)cc1)c1cn2c(n1)CCCC2 [Example 134, N-[4-(4-oxo-3,4-dihydrophthalazin-1-yl)phenyl]-5H,6H,7H,8H-imidazo[1,2-a]pyridine-2-carboxamide]
24 | 0.1 to 100 | 101 to 1000 | O=C(Nc1ccc(-c2n[nH]c(=O)c3ccccc23)cc1)c1c[nH]c2ncccc12 [Example 135, N-[4-(4-oxo-3,4-dihydrophthalazin-1-yl)phenyl]-1H-pyrrolo[2,3-b]pyridine-3-carboxamide]
25 | 0.1 to 100 | 1000 to 50000 | O=C(Nc1ccc(-c2n[nH]c(=O)c3ccccc23)cc1)c1cc2ccccc2n1Cc1ccccc1 [Example 136, 1-benzyl-N-[4-(4-oxo-3,4-dihydrophthalazin-1-yl)phenyl]-1H-indole-2-carboxamide]
26 | 0.1 to 100 | 0.1 to 100 | Cc1ccn2c(C(=O)Nc3ccc(-c4n[nH]c(=O)c5ccccc45)cc3)c(C)nc2c1 [Example 139, 2,7-dimethyl-N-[4-(4-oxo-3,4-dihydrophthalazin-1-yl)phenyl]imidazo[1,2-a]pyridine-3-carboxamide]
27 | 0.1 to 100 | 0.1 to 100 | CCc1nc2ncccn2c1C(=O)Nc1ccc(-c2n[nH]c(=O)c3ccccc23)cc1 [Example 140, 2-ethyl-N-[4-(4-oxo-3,4-dihydrophthalazin-1-yl)phenyl]imidazo[1,2-a]pyrimidine-3-carboxamide]
28 | 0.1 to 100 | 0.1 to 100 | COc1ccc2c(C(=O)Nc3ccc(-c4n[nH]c(=O)c5ccccc45)cc3)cnn2c1 [Example 141, 6-methoxy-N-[4-(4-oxo-3,4-dihydrophthalazin-1-yl)phenyl]pyrazolo[1,5-a]pyridine-3-carboxamide]
29 | 1000 to 50000 | 1000 to 50000 | O=C(Nc1ccc(-c2n[nH]c(=O)c3ccccc23)cc1)c1c2ccccc2nn1CC1COC1 [Example 143, 2-(oxetan-3-ylmethyl)-N-[4-(4-oxo-3,4-dihydrophthalazin-1-yl)phenyl]-2H-indazole-3-carboxamide]

Row | Structure (SMILES) | IC50 [1] [nM] | IC50 [2] [nM]
30 | CC(C)n1nc(C(=O)Nc2ccc(-c3n[nH]c(=O)c4ccccc34)cc2)c2ccccc21 [Example 132, N-[4-(4-oxo-3,4-dihydrophthalazin-1-yl)phenyl]-1-(propan-2-yl)-1H-indazole-3-carboxamide] | 0.1 to 100 | 0.1 to 100
31 | CC(C)(O)Cn1nc(C(=O)Nc2ccc(-c3n[nH]c(=O)c4ccccc34)cc2)c2ccccc21 [Example 137, 1-(2-hydroxy-2-methylpropyl)-N-[4-(4-oxo-3,4-dihydrophthalazin-1-yl)phenyl]-1H-indazole-3-carboxamide] | 0.1 to 100 | 0.1 to 100
32 | CC(C)(O)Cn1cc(C(=O)Nc2ccc(-c3n[nH]c(=O)c4ccccc34)cc2)c2ccccc21 [Example 138, 1-(2-hydroxy-2-methylpropyl)-N-[4-(4-oxo-3,4-dihydrophthalazin-1-yl)phenyl]-1H-indole-3-carboxamide] | 0.1 to 100 | 0.1 to 100
33 | CC1(Cn2nc(C(=O)Nc3ccc(-c4n[nH]c(=O)c5ccccc45)cc3)c3ccccc32)COC1 [Example 145, 1-[(3-methyloxetan-3-yl)methyl]-N-[4-(4-oxo-3,4-dihydrophthalazin-1-yl)phenyl]-1H-indazole-3-carboxamide] | 0.1 to 100 | 0.1 to 100
34 | O=C(Nc1ccc(-c2n[nH]c(=O)c3ccccc23)cc1)c1nn(CC2CCOC2)c2ccccc12 (centres unmarked) [Example 146, N-[4-(4-oxo-3,4-dihydrophthalazin-1-yl)phenyl]-1-(oxolan-3-ylmethyl)-1H-indazole-3-carboxamide] | 0.1 to 100 | 0.1 to 100
